Tested on: HCT 116 colon adenocarcinoma cells
Test: Cell Proliferation Procedure (SRB, three days)
Assay type: cell-based
Conditions: for IC50: growth for 3 days, SRB, single agent, read-out: IC50 value, drug alone
Protocol: Cell Proliferation Procedure—HCT 116 colon adenocarcinoma cells were maintained in RPMI 1640 medium (Life Technologies, Inc., Gaithersburg, Md.) supplemented with 10% fetal bovine serum (FBS, Life Technologies) and 50 μg/ml gentamicin (Life Technologies) under 7% CO2 at 37° C. Cells were plated in 96-well microtiter dishes (6000 cells/well) in 200 μl RPMI 1640 medium containing 5% FBS and 50 μg/ml gentamicin and incubated overnight at 37° C. Compound dilutions were prepared in the same medium, at 5× final concentration, and 50 μl of the drug dilution was added to the cell-containing wells. For studies involving combinations of two drugs, serial dilutions of one compound were prepared in the presence of a fixed dose of a second compound. Alternatively, a checkerboard dilution series was employed. Cells were cultured for three days in the presence of the drugs. Untreated cells were included as controls. The percentage of surviving cells was determined using sulforhodamine B (SRB, Sigma-Aldrich, St Louis, Mo.), a protein binding dye. Cellular protein was precipitated in each well by the addition of 50 μl of 50% cold trichloroacetic acid. After 1 hour, the plates were washed extensively in water and dried. SRB dye reagent (0.4% SRB in 1% acetic acid, 80 μl per well) was added and plates were kept at room temperature for ten minutes. Plates were then washed thoroughly in 1% acetic acid and dried. Cell-associated dye was dissolved in 10 mM Tris (150 μl) and the absorbance was read at 540 nm in a microtiter plate reader. The concentration of compound that caused a fixed percentage inhibition of growth was determined by plotting cell survival (relative to untreated cells) against the compound dose.

[1] = Homo sapiens, HCT-116, 72 h, HCT116 cells

Row | SMILES | high doses that inhibit the cells (cells somewhat resistant) (HCT 116 cells, CCI-779 alone) [µg/mL] | inhibition at 0.026 µg/mL (Homo sapiens, HCT-116, 72 h, HCT116 cells, 3 days, 0.026 μg/ml CCI-779 alone) [%] | inhibition at 2.08 µg/mL (Homo sapiens, HCT-116, 72 h, HCT116 cells, 3 days, 2.08 μg/ml CCI-779 alone, read-out: inhibition of growth when administered alone) [%] | IC50 [1] [µg/mL]
1 | CO[C@H]1C[C@@H]2CC[C@@H](C)[C@@](O)(O2)C(=O)C(=O)N2CCCC[C@H]2C(=O)O[C@H]([C@H](C)C[C@@H]2CC[C@@H](OC(=O)C(C)(CO)CO)[C@H](OC)C2)CC(=O)[C@H](C)/C=C(\C)[C@@H](O)[C@@H](OC)C(=O)[C@H](C)C[C@H](C)/C=C/C=C/C=C/1C [CCI-779, rapamycin 42-ester with 3-hydroxy-2-(hydroxymethyl)-2-methylpropionic acid] | 5 to 10 | 36 | 41 | 4.3
2 | CCOc1cc2ncc(C#N)c(Nc3ccc(F)c(Cl)c3)c2cc1NC(=O)C=CCN(C)C [EKB-569, 4-dimethylamino-but-2-enoic acid [4-(3-chloro-4-fluoro-phenylamino)-3-cyano-7-ethoxy-quinolin-6-yl]-amide] | – | – | – | 0.31

Reference: patent publication USRE41253E1, “Antineoplastic combinations” (Wyeth, priority 2001, dated 2010)
